Measurements from paper PMC7114212 (Antiviral Research, 2006).
Like-named read-outs stand apart in the source and are kept apart here.

Assays:
CEM cells = details: cited from earlier work; for IC50: read-out: HIV-1 (CEM) IC50 (50% cytostatic concentration)
HIV-1 (IIIB) = details: read-out: HIV-1 (CEM) EC50; cited from earlier work
[1] = system: Crandell-Reese feline kidney (CRFK) cells
FIPV strain 79-1146 = assay: microbe, parasite or virus in culture; type: cell-based, feline infectious peritonitis virus; details: read-out: FIPV (CRFK) EC50
FIPV = type: cell-based, feline infectious peritonitis virus
[2] = mouse, in vivo, cited from earlier work

Compound | HIV-1 (CEM) IC50 (50% cytostatic concentration) (CEM cells) | IC50 (CEM cells) [µM] | EC50 (HIV-1 (IIIB)) [µM] | SARS-CoV (Vero) CC50 (Vero cells) | FIPV (CRFK) CC50 [1] | EC50 (FIPV strain 79-1146; Alphacoronavirus 1, CRFK, 96 h) [µM] | EC50 (FIPV strain 79-1146) [µM] | CC50 (Vero cells) [µM] | CC50 [1] [µM] | delay of addition after FIPV infection that keeps full antiviral activity (FIPV) | Vss ([2]; iv) [L/kg] | half-life ([2]; iv) [h] | tissue penetration [2]
CN[C@H](CC(C)C)C(=O)N[C@H]1C(=O)N[C@@H](CC(N)=O)C(=O)N[C@H]2C(=O)N[C@H]3C(=O)N[C@H](C(=O)N[C@H](C(=O)O)c4cc(O)cc(O)c4-c4cc3ccc4O)[C@H](O)c3ccc(c(Cl)c3)Oc3cc2cc(c3O[C@@H]2O[C@H](CO)[C@@H](O)[C@H](O)[C@H]2O[C@H]2C[C@](C)(N)[C@H](O)[C@H](C)O2)Oc2ccc(cc2Cl)[C@H]1O [compound 1, Vancomycin] | neither toxic | > 500 | > 250 | neither toxic | neither toxic | > 80 | > 100 | – | – | – | – | – | –
Carboxyeremomycin [compound 14] | – | – | – | – | – | – | > 80 | – | – | – | – | – | –
De-Cl-eremomycin aglycon [compound 89] | – | – | > 125 | – | – | – | > 100 | > 100 | > 100 | – | – | – | –
Eremomycin [compound 7] | neither toxic | > 500 | > 250 | neither toxic | neither toxic | – | > 100 | – | – | – | – | – | –
Eremomycin aglycon [compound 71] | – | > 500 | 50 | – | – | – | > 80 | > 80 | > 80 | – | – | – | –
Eremomycin aglycon hexapeptide [compound 84] | – | > 250 | 115 ± 21.2 | – | – | – | > 80 | > 80 | > 80 | – | – | – | –
N-Deacyl-A40926 [compound 55] | neither toxic | > 500 | > 250 | neither toxic | neither toxic | – | > 80 | – | – | – | – | – | –
Ristomycin [compound 50] | neither toxic | > 500 | > 250 | neither toxic | neither toxic | – | > 80 | – | – | – | – | – | –
Ristosaminylaglycon of ristomycin [compound 51] | – | > 100 | > 50 | – | – | – | > 80 | – | – | – | – | – | –
Teicoplanin [compound 52] | neither toxic | > 500 | – | neither toxic | neither toxic | – | > 80 | – | – | markedly less delayed | – | – | –
Vancomycin aglycon [compound 65] | – | > 500 | 65 | – | – | – | > 80 | > 80 | > 80 | – | – | – | –
Vancomycin aglycon hexapeptide [compound 69] | – | – | ≥ 125 | – | – | – | > 100 | > 100 | > 100 | – | – | – | –
adamantyl-2 amide of eremomycin [AN0900] | – | – | – | – | – | – | – | – | – | – | 26.285 | 3.08 | deep tissue penetration
demannosyl-N-deacylA40926 [compound 57] | neither toxic | > 500 | 115 ± 21 | neither toxic | neither toxic | – | > 80 | – | – | – | – | – | –
